Measured values as given in ChEMBL document CHEMBL1201862, “PubChem BioAssay data set” (2004).
Calls of active or inactive are those of the source.

Columns and labels:
[1] = target: RNA-editing ligase 1, mitochondrial (Trypanosoma brucei brucei, UniProt P86926); test: inhibition of trypanosome RNA editing ligase – biochemical, fluorescence, Trypanosoma brucei, dose response (AID 1117295); format: functional
[2] = cells
[3] = target: Major prion protein (Homo sapiens, UniProt P04156); format: functional, cell-based
[4] = Late stage counterscreen for inhibitors of Trypanosoma brucei methionyl tRNA synthetase (MetRS): Luminescence-based cell-based high throughput dose response assay to identify compounds that are cytotoxic to Jurkat human T lymphocyte cells.; format: functional
[5] = Trypanosoma cruzi growth suppression in host cells – NIH3T3 host cells, beta-gal luminescence, confirmation (AID 2044); format: functional, cell-based;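 note: intracellular parasites grown in NIH/3T3 mouse fibroblasts as host cells; luminescent beta-galactosidase reporter signal from transgenic T. cruzi replicating inside host cells; inhibitors lower the luminescence signal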
[6] = NIH3T3 cell viability loss – ATP luminescence, mouse fibroblasts, counter-screen, dose response (AID 2010); format: functional, cell-based;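 note: cells exposed to compound for about 90 hours before reading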
[7] = cells; remark: listed apart in the source
[8] = Luminescence Cell-Based Dose Retest to Confirm Inhibitors of Cancer Stem Cells. [Related pubchem assays (depositor defined):AID2717, AID2721]; format: functional; conditions: Homo sapiens
[9] = target: T1, Methionyl-tRNA synthetase, putative (Trypanosoma brucei brucei, UniProt Q38C91); format: functional, Trypanosoma brucei brucei strain 927/4 GUTat10.1
T1 sequence (Q38C91 whole entry): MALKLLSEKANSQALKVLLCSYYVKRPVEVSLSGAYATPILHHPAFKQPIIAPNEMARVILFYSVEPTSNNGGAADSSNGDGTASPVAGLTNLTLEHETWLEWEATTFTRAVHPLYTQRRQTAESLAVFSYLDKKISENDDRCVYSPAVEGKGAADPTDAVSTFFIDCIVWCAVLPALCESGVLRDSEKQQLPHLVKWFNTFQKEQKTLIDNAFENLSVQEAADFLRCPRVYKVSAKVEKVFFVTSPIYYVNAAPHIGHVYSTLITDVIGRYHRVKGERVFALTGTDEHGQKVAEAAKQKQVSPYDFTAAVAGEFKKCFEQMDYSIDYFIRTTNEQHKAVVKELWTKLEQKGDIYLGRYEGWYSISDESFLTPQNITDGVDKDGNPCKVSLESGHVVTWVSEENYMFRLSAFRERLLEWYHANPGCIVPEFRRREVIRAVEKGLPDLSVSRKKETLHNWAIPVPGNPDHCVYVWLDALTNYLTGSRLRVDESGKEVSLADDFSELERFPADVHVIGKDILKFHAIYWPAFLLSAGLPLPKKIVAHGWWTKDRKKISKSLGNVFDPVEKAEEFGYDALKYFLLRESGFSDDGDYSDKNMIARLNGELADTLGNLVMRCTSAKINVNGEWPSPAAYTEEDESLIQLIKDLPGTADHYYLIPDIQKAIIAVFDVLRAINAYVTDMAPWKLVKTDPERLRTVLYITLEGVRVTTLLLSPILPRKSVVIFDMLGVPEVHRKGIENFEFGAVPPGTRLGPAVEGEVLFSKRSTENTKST

[10] = target: T1, Methionyl-tRNA synthetase, putative; format: functional, Trypanosoma brucei brucei strain 927/4 GUTat10.1; remark: listed apart in the source
[11] = Counterscreen for inhibitors of Trypanosoma brucei methionyl tRNA synthetase (MetRS): Luminescence-based cell-based high throughput dose response assay to identify compounds that are cytotoxic to Jurkat human T lymphocyte cells.; format: functional
[12] = target: T2, Oxysterols receptor LXR-beta (Homo sapiens, UniProt P55055); format: functional, cell-based;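 note: agonist activity at LXR measured by a cell-based luminescence readout across a dose range, run as a counterscreen for daf-12 agonists; HEK293 cells with Gal4-LXR fusion and GAL4-driven luciferase reporter; potency for activation of Gal4-LXR reporter so compounds are agonists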
T2 sequence (P55055 whole entry): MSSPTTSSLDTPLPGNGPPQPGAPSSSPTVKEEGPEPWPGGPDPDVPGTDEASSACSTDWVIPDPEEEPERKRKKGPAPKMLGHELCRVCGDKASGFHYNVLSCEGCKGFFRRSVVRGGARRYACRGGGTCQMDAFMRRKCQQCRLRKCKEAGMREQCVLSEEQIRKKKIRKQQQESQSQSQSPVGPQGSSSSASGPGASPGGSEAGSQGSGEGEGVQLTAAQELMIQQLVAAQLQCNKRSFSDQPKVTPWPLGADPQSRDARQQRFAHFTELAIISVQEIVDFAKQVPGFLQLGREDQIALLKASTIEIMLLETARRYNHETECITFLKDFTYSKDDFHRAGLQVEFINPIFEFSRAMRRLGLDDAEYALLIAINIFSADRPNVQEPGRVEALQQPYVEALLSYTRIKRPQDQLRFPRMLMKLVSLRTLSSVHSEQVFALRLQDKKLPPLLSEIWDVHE

[13] = target: Endoplasmic reticulum aminopeptidase 1 (Homo sapiens, UniProt Q9NZ08); test: inhibition of human ERAP1 enzyme activity – biochemical, cherry-pick, set 2, plate reader, dose response (AID 743314)
[14] = target: Solute carrier family 12 member 2/member 5 (Homo sapiens, UniProt P55011+Q9H2X9); test: KCC2 and NKCC1 inhibition by rubidium flux, cell-based, NKCC1 counter-screen (AID 1734); format: functional, HEK293
[15] = target: Prothrombin (Homo sapiens, UniProt P00734); test: Thrombin 1536 HTS Dose Response Confirmation. [Related pubchem assays: 1046 (Thrombin 1536 HTS; hits were confirmed in this assay)]; format: functional
[16] = target: T3, Dual specificity protein phosphatase 6 (Rattus norvegicus, UniProt Q64346); test: inhibition of rat DUSP6 enzyme activity – biochemical, in vitro, primary screen (AID 425)
T3 sequence (Q64346 whole entry): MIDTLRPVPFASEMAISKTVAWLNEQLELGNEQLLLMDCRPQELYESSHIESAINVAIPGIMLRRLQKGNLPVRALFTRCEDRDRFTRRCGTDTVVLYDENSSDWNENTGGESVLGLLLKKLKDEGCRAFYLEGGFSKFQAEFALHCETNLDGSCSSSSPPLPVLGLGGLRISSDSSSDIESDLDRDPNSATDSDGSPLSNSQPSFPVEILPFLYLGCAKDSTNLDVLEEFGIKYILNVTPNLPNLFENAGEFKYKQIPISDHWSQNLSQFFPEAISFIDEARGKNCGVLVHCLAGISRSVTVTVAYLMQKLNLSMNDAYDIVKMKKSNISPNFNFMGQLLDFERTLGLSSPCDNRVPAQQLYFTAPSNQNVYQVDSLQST

[17] = target: Induced myeloid leukemia cell differentiation protein Mcl-1 (Homo sapiens, UniProt Q07820); format: functional
[18] = Luminescence Cell-Based Dose Confirmation HTS to Identify Inhibitors of Platelet Dense Granule Release. [Related pubchem assays: 1663 (Primary HTS), 1678 (Summary of Project)]; format: functional
[19] = target: T4, Protein skinhead-1 (Caenorhabditis elegans, UniProt P34707); format: functional
T4 sequence (P34707 whole entry): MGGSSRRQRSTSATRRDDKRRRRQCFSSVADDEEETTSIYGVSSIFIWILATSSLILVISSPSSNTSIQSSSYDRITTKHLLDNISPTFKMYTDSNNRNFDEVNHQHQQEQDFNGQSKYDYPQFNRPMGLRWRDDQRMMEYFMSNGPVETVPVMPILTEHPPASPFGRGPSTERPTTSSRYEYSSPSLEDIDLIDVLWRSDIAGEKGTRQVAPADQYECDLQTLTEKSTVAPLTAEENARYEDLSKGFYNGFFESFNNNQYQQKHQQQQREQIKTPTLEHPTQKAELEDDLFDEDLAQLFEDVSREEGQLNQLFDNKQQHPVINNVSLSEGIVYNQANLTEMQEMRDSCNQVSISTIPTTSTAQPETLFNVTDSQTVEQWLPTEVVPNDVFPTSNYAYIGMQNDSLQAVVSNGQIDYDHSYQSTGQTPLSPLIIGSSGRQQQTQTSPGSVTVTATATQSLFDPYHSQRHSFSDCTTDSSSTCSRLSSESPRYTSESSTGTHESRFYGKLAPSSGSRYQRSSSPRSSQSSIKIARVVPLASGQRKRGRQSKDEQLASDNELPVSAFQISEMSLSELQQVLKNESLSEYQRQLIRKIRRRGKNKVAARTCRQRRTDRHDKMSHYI

[20] = target: Luciferin 4-monooxygenase (Photinus pyralis, UniProt P08659); test: inhibition of purified Photinus pyralis luciferase – biochemical, luminescence, dose response (AID 1891)

CCCCCCCN1C(Nc2ccccc2)=NC[C@@H]1CC(C)C
IC50 [1]: > 96.6 µM (inactive)

O=C(O)CSc1ccnc2cc(Cl)ccc12
IC50 [2]: > 138 µM (inactive) | IC50 [3]: 4.04 µM (active)

COc1ccccc1Cn1c(=S)[nH]c2ccccc2c1=O
IC50 [2]: > 138 µM (inactive) | IC50 [3]: 3.49 µM (active)

O=C(NCc1nc2ccccc2[nH]1)C1=C[C@H](c2ccccc2)C[C@H](OCc2ccc(CO)cc2)O1
IC50 [4]: > 83.3 µM (inactive)

CN1CCC(OC(=O)c2cccc(Cl)c2)CC1
EC50 [5]: < 0.1 µM (active) | EC50 [6]: > 60 µM (not active) | EC50 [7]: 0.102 µM (active) | AC50 [8]: 1.3 µM (active)

COc1ccc(OCC(O)CNC(=O)Nc2ccc(Cl)cc2)cc1 (stereo not given)
IC50 [9]: 4.39 µM (active) | IC50 [10]: 4.66 µM (active) | IC50 [4]: > 83.3 µM (inactive) | IC50 [11]: 83.3 µM (inactive)

Cc1ccc2c(c1)N=C(c1ccccc1)CC(C(Cl)Cl)=N2
EC50 [12]: > 67.5 µM (inactive)

CCN(CC)Cc1c(O)ccc2cc(-c3nc4ccccc4n3C)c(=O)oc12
AC50 [13]: 1.8 µM (active)

O=C(Nc1cccnc1)c1ccc(COc2ccccc2Cl)o1
IC50 [14]: 12.1 µM (active)

COc1cc(CCC(=O)Nc2cccc(C(F)(F)F)c2)cc(OC)c1OC
IC50 [15]: > 50 µM (not active)

Cc1c(N=c2c(=O)c3ccccc3c2=O)c(=O)n(-c2ccccc2)n1C
IC50 [16]: > 100 µM (not active)

O=C(CSc1nnc(-c2ccco2)c(-c2ccco2)n1)c1ccccc1
IC50 [17]: 3.19 µM (active) | IC50 [1]: > 96.6 µM (inactive)

COc1cccc(-c2noc(-c3cccs3)n2)c1
EC50 [18]: > 112 µM (not active) | IC50 [19]: 13.7 µM (active) | EC50 [20]: 7.26 µM (active) | EC50 [12]: > 67.6 µM (inactive)
